pKd: −log10 of the molar value. Values joined by “and” are separate entries in the source; they are usually repeats but may differ in a detail not shown here. Equal entries are not always repeated.
Columns and labels:
TBL1XR1 (Homo sapiens) = experiment: Chemoproteomic competition pulldown assay (co-competed NCoR partner); type: binding; settings: iQ, SW620 lysate
Description: (§1) To identify proteins directly bound by lipoic acid, we employed a chemoproteomic competition assay. Briefly, (R/S)-LA was immobilized on sepharose beads via an amidation reaction to form an affinity matrix (abbreviated as iL; Fig. 1a). This affinity matrix can be incubated with cell lysate to pull down potential LA or LM target proteins and identify these targets via bottom-up proteomics. In a competition assay, free LA or LM were incubated with lysate at different concentrations before pulling down and quantifying target proteins. […] (Fig. 1b, see “Methods” for details). […] The lysate buffer used in this assay contains 1 mM DTT to mimic the intracellular reductive milieu and to reduce lipoic acid and LM. […] Additional competition assays performed in lung adenocarcinoma cell A549 lysate also identified HDAC1, HDAC2, and HDAC6 as targets (Supplementary Fig. 1b). Amongst the three cell lines tested, HDACs were the only confidently identified targets across the 1500–3000 proteins quantified in these assays. […] We validated the results by analogous pulldown competition assays using two other affinity matrices prepared via the immobilization of either the HDAC inhibitor Quisinostat (iQ) and an analog of the class IIa HDAC inhibitor Bürli’s 31[14] (iC)[12]. We have previously shown that these affinity matrices specifically bind to the active sites of HDACs and have used them for HDACi selectivity profiling. Indeed, binding of (R/S)-LA and (R/S)-LM to HDAC1, HDAC2, HDAC3, HDAC6, and, to a lesser extent, HDAC8 was confirmed in these assays (Supplementary Fig. 1c, d). No binding to class IIa HDACs or the recently discovered common HDAC inhibitor off-target MBLAC2 was observed (Supplementary Fig. 1e)[12]. […] This observation might reflect electrostatic repulsion between the HDAC10 active site gate-keeper glutamic acid residues[15],[16] and the terminal carboxylic acid of LA.
(§2) To assess the degree of protein depletion from lysates by the affinity matrix, a second pulldown (PDPD) with fresh beads was performed using the unbound protein fraction from the vehicle control flow through. The beads were washed (1 × 1 mL of lysis buffer without inhibitors and only 0.4% Igepal, 2 × 2 mL of lysis buffer without inhibitors and only 0.2% Igepal), and captured proteins were denatured with 8 M urea buffer, alkylated with 55 mM chloroacetamide and digested with Trypsin according to standard procedures. The resulting peptides were desalted on a C18 filter plate (Sep-Pak® tC18 µElution Plate, Waters), vacuum dried, and stored at −20 °C until LC–MSMS measurement.
(§3) For the competition assays, relative binding was calculated based on the protein intensity ratio to the DMSO control for every single inhibitor concentration. EC50 values were derived from a four-parameter log-logistic regression with variable slope (constrain: bottom > 0). The obtained EC50 values were multiplied with a protein-dependent correction factor (cf), resulting in the apparent Kd value (Kd^app). The correction factor is determined by calculating the ratio of the protein intensity of two consecutive pulldowns of the vehicle control sample[13]. Targets of the inhibitors were annotated manually according to published procedures[12],[46],[47]. […] Additionally, the number of unique peptides and MSMS counts per condition were taken into account. Positive target binding across several independent experiments performed with different cell lysates further substantiated our confidence for a true positive drug-target binding event.

TwinStrep-GST-HDAC10 = molecular target: T1, TwinStrep-GST-HDAC10 (Homo sapiens, UniProt Q969S8); experiment: HDAC10 TR-FRET assay; type: binding; settings: reducing conditions (0.5 M TCEP)
T1 sequence (Q969S8 1-669): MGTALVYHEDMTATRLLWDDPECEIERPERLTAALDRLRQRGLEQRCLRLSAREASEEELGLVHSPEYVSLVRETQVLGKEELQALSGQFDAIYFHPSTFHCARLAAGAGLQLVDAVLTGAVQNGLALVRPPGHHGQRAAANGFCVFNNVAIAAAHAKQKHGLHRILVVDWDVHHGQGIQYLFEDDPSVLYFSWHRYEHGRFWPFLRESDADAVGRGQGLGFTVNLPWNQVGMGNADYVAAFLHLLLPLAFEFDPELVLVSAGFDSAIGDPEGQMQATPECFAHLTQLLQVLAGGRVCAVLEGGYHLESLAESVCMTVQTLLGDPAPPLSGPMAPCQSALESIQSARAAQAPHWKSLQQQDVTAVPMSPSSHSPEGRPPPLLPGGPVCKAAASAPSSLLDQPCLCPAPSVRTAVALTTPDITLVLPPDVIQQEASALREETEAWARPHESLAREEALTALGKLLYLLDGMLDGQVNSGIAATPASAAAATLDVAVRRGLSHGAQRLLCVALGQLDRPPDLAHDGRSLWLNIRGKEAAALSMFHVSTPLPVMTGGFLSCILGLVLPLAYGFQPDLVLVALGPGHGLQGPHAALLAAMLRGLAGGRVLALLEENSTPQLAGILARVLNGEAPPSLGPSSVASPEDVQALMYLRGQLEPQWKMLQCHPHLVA
Description: To validate the inhibition of HDACs by LA and LM and elaborate on the structure-activity relationship (SAR) of enantiomers as well as oxidized versus reduced forms of the molecules, we performed enzyme activity assays for recombinant HDAC1,2,3,6,8 as well as FRET-based binding assay for recombinant HDAC10.
Inhibitors with a D300e Digital Dispenser (Tecan). After drug dosing to the premixed assay reagents in buffer, plates were shaken (800 rpm orbital shaker, 30 s), centrifuged (300g, 1 min), and incubated at RT in the dark for 90 min. TR-FRET was measured with a CLARIOstar (BMG Labtech) plate reader, equipped with TR-FRET filters.

HeLa S3 cells = experiment: Global acetyl-lysine detection by Western blot; settings: for relative lysine acetylation vs DMSO: HeLa S3, 1 mM, 16 h, replicates A/B
Description: HeLa S3 was grown in DMEM medium (PAN Biotech) supplemented with 10% FBS (PAN Biotech) and treated with drugs (final concentration of 0.1% DMSO) for indicated periods. […] The protein amount of cell lysates was determined by Bradford assay. […] Proteins were separated by SDS-PAGE and electro-transferred onto PVDF membranes. […] Acquisition and quantification of the band fluorescence intensities were carried out with the Odyssey (Licor) imaging system and corresponding software (v 3.0.29). Intensities of proteins were normalized to input beta-Actin and further normalized to the control treatments to calculate the relative acetylation change.

HDAC3 = molecular target: T2, HDAC3 (Homo sapiens, UniProt O15379); experiment: Chemoproteomic competition pulldown assay; type: binding; settings: iL, MV4-11 lysate
T2 construct: endogenous in cells; host or cells: MV4-11 lysate
Description: as §1, §2, §3

[1] = HeLa S3, time-dependent treatment, 5 mM

T2 sequence (O15379 whole entry): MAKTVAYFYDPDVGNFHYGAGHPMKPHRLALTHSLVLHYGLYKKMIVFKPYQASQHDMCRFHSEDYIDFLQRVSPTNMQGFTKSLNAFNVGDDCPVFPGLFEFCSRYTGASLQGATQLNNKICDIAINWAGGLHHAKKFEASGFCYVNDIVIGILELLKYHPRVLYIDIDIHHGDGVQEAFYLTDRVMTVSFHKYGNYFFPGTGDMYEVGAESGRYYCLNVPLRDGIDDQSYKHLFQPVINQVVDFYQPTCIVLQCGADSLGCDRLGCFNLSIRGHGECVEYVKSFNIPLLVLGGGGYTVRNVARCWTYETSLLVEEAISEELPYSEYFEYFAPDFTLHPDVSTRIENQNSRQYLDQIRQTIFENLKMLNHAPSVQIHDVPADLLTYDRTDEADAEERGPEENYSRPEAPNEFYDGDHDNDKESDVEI
T2 sequence (O75376 whole entry partner): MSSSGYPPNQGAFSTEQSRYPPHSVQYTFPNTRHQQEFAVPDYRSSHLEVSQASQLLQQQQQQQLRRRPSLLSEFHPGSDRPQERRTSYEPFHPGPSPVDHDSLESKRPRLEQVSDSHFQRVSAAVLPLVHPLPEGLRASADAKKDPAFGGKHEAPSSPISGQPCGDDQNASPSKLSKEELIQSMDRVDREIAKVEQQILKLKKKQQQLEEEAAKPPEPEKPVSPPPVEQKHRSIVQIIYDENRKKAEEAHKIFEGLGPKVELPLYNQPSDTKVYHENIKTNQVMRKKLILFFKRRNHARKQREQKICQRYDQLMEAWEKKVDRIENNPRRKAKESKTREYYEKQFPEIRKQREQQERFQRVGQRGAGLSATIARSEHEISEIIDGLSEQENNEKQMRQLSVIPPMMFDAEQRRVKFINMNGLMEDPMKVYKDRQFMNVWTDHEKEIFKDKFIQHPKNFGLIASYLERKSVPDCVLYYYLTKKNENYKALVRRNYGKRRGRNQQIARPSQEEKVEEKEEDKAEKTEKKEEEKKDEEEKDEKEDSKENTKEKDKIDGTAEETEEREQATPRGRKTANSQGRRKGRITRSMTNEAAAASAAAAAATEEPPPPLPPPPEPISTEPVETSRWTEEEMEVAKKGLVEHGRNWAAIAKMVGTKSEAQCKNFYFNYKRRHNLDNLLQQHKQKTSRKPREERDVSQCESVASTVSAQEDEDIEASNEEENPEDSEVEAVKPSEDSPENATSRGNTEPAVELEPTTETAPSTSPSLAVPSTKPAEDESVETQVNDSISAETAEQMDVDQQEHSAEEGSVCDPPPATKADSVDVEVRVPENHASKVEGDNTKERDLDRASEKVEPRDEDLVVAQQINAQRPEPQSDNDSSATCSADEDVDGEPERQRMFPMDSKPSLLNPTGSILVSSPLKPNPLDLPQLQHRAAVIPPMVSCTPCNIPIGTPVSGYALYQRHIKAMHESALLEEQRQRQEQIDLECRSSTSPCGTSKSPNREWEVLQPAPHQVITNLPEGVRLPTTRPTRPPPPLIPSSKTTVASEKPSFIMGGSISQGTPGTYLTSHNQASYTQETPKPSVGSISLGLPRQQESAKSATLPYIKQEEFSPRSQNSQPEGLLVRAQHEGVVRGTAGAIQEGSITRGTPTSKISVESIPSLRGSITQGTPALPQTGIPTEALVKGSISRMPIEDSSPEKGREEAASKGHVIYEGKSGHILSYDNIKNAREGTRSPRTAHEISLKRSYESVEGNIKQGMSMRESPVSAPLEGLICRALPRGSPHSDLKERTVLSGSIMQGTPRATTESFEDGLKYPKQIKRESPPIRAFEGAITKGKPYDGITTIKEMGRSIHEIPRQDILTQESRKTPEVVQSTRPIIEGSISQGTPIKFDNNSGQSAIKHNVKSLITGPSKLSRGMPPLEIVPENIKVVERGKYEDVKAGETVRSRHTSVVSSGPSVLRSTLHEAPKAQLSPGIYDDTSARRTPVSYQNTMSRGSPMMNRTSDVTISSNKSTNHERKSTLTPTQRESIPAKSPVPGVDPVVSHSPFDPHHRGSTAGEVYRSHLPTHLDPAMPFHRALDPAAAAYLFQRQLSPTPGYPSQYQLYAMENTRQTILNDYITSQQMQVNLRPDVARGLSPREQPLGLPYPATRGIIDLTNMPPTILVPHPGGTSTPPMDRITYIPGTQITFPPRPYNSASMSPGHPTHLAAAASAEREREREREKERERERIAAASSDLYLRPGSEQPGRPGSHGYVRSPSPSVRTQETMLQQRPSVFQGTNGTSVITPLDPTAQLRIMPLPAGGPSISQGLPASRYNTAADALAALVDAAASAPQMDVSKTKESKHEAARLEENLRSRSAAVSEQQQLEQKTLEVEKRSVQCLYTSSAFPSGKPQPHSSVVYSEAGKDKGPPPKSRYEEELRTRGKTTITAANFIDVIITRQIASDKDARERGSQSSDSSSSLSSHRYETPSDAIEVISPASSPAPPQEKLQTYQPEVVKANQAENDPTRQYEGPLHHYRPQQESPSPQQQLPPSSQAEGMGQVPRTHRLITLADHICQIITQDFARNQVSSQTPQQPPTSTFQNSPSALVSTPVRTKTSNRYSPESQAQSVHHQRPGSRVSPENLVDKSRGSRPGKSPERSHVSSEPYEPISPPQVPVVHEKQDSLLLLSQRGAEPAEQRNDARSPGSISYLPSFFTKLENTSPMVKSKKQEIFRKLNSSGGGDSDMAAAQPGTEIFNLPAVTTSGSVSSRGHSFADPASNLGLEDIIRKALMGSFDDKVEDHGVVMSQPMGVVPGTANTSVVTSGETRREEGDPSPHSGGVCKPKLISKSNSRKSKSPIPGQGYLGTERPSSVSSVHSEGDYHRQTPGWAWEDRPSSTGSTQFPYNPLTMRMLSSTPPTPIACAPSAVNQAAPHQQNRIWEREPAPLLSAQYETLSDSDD
Sequence of TBL1XR1 (Homo sapiens) (O15379 whole entry): as the sequence (O15379 whole entry) above
Sequence of TBL1XR1 (Homo sapiens) (Q9BZK7 2-514, further chain): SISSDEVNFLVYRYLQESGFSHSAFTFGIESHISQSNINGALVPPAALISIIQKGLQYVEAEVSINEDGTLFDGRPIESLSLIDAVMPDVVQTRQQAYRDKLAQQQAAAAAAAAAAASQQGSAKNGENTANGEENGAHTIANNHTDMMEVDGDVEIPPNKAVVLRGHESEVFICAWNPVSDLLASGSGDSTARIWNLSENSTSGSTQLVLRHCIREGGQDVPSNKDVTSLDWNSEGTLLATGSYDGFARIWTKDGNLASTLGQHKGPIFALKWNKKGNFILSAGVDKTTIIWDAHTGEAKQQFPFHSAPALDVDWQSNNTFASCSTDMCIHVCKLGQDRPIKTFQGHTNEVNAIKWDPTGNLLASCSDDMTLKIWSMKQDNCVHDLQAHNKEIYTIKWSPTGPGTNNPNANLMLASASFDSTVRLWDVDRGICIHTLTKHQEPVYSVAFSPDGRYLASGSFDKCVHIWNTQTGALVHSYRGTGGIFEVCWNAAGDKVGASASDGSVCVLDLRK

SMILES | relative binding vs DMSO (TBL1XR1 (Homo sapiens); log10 M -3.52288) | relative binding vs DMSO (TBL1XR1 (Homo sapiens); log10 M -4) | relative binding vs DMSO (TBL1XR1 (Homo sapiens); log10 M -4.52288) | relative binding vs DMSO (TBL1XR1 (Homo sapiens); log10 M -5) | relative binding vs DMSO (TBL1XR1 (Homo sapiens); log10 M -5.52288) | relative binding vs DMSO (TBL1XR1 (Homo sapiens); log10 M -6) | relative binding vs DMSO (TBL1XR1 (Homo sapiens); log10 M -6.52288) | relative binding vs DMSO (TBL1XR1 (Homo sapiens); log10 M -7) | fold lower affinity to HDAC10 compared to Vorinostat (TwinStrep-GST-HDAC10) [fold] | other results
O=C(O)CCCCC1CCSS1 (racemic) [(R/S)-LA, (R/S)-lipoic acid] | 0.2899 | 0.4212 | 0.5577 | 0.7209 | 0.9534 | 0.8832 | 1.088 | 1.002 | ~200 | relative lysine acetylation vs DMSO (HeLa S3 cells; 10-12 kDa bands): 5.9571 and 6.0208; relative lysine acetylation vs DMSO (HeLa S3 cells; 14-16 kDa bands): 4.6853 and 4.9960; relative lysine acetylation vs DMSO (HeLa S3 cells; 21-23 kDa bands): 2.3477 and 2.3498; relative lysine acetylation vs DMSO (HeLa S3 cells; 24-26 kDa bands): 2.1045 and 2.1971; relative lysine acetylation vs DMSO (HeLa S3 cells; 49-51 kDa bands): 6.4530 and 6.1942; relative lysine acetylation vs DMSO (HeLa S3 cells; 65-73 kDa bands): 5.8639 and 5.7630; time of peak acetylation (HeLa S3 cells; [1]): 3 to 8 h; time to upregulation of acetylation on a broad range of proteins (HeLa S3 cells; [1]): ≤ 1 h
NC(=O)CCCCC1CCSS1 (racemic) [(R/S)-LM, (R/S)-lipoamide] | 0.1308 | 0.176 | 0.3741 | 0.8567 | 0.9248 | 0.9851 | 0.8544 | 0.9921 | 5 | relative binding vs DMSO (HDAC3; log10 M -3.52288): 0.06787; relative binding vs DMSO (HDAC3; log10 M -4): 0.1873; relative binding vs DMSO (HDAC3; log10 M -4.52288): 0.229; relative binding vs DMSO (HDAC3; log10 M -5): 0.6794; relative binding vs DMSO (HDAC3; log10 M -5.52288): 1.111; relative binding vs DMSO (HDAC3; log10 M -6): 0.7918; relative binding vs DMSO (HDAC3; log10 M -6.52288): 1.34; relative binding vs DMSO (HDAC3; log10 M -7): 0.7531; pKd (HDAC3; read-out: Kd app): 4.89
